The source of these data is patent US9649305B2, “PFKFB3 inhibitor and methods of use as an anti-cancer therapeutic” (ADVANCED CANCER THERAPEUTICS, LLC, priority 2012, dated 2017).

One series concerns SK-BR-3. In words: Cancer cell proliferation, MTT assay. The following applies: Homo sapiens; SK-BR-3, MTT assay, 48 hours. In kind it is cell-based. The method, then:
(§1) The ability of PFK-158 to kill or inhibit the proliferation of cancer cells was measured using either the MTT assay, the alamarBlue® assay (Invitrogen, Grand Island, N.Y.), or the CellTiter Glo™ assay (Promega, Madison, Wis.) using 48 or 72 hours exposure.
(§2) Cells of the desired tumor cell line were plated at 2×10^5 cells/ml in 96 well plates. Twice the indicated concentrations of the compounds of the invention were added to cells the following day in an equal volume of media. 72 hours later, cells were lysed and subjected to ATP determination using the CellTiter-Glo™ Luminescent Cell Viability Assay kit. Experiments were performed in triplicate. When using the MTT assay or the alamarBlue® assay, the experimental conditions are essentially similar; at the end of the incubation period, 20 microliters of the MTT solution is added per well and the samples are incubated for an additional four hours, rinsed, and absorbance at 570 nm was measured. Results for the inhibition of cell proliferation are reported as the IC50 (the concentration resulting in 50% inhibition of proliferation of the cell population) and are listed in Table 5 below. Cell lines include lung, colon, prostate, breast, ovarian, and pancreatic cancer lines.

The test system of a further series is SW620. The series can be described thus: Cancer cell proliferation, MTT assay. In kind it is cell-based. The conditions noted are these: Homo sapiens, SW-620, 48 hours. The procedure:
as §1, §2
(Tetrazolium assays rely on reduction of a dye to a coloured formazan, in cell work by metabolically active cells.)

A further series concerns A498. In words: Cancer cell proliferation, MTT assay. Type of series: cell-based. The following applies: Homo sapiens, 48 hours. The method, then:
as §1, §2

In another series the test system is A549. The series can be described thus: Cancer cell proliferation, MTT assay. The following applies: Homo sapiens, 48 hours. Type of series: cell-based. The procedure:
as §1, §2

In another series the test system is BT474. The series can be described thus: Cancer cell proliferation, MTT assay. In kind it is cell-based. The conditions noted are these: Homo sapiens, BT-474, 48 hours. The procedure:
as §1, §2

For a further series, the system named is HCT116. In words: Cancer cell proliferation, MTT assay. Type of series: cell-based. The following applies: Homo sapiens, HCT-116, 48 hours. The method, then:
as §1, §2

The subject of the next series is PC-3. In words: Cancer cell proliferation, MTT assay. Type of series: cell-based. The following applies: Homo sapiens; PC-3, MTT assay, 48 hours. The method, then: as §1, §2
The next series relates to MiaPaCa-2. In words: Cancer cell proliferation, MTT assay. In kind it is cell-based. The conditions noted are these: Homo sapiens, MIA PaCa-2; MiaPaCa-2, MTT assay, 48 hours. The method, then:
as §1, §2

The subject of the next series is HT29. The series can be described thus: Cancer cell proliferation, MTT assay. Type of series: cell-based. The conditions noted are these: Homo sapiens, HT-29, 48 hours. The procedure: as §1, §2
A further series deals with SKOV-3. In words: Cancer cell proliferation, MTT assay. The following applies: Homo sapiens, SK-OV-3; SKOV-3, MTT assay, 48 hours. In kind it is cell-based. The method, then: as §1, §2
Series [1] has as its system lung cancer model, pancreatic cancer model, colon cancer model. In words: Tumor growth inhibition in mouse cancer models. The method, then: Studies determining efficacy of PFK-158 at inhibiting tumor growth in mouse cancer models were performed. These studies were carried out with PFK-158 alone and in combination with compounds currently used in the treatment of cancer patients. Studies were performed in a lung cancer model, a pancreatic cancer model, and in a colon cancer model.
Efficacy of PFK-158 was studied in vivo in tumor models. Several tumor models were used in these studies (the Lewis lung carcinoma, or LLC model, the CT-26 colon carcinoma tumor model, or the BXPC3 pancreatic cancer model). The experimental protocol for the LLC study is described below. Subsequent to subcutaneous inoculation of tumor cells, tumors started to develop and once tumors reached the desired volume of 100-125 mm^3 on average, treatment was initiated. Tumor volume was monitored in both groups and the average for both the control and treatment groups was measured three times a week, as well as body weights.
Briefly, normal female C57BL/6 mice at 7-8 weeks of age were used for the study. Mice were housed in microisolator housing, with food and water provided as libitum, and quarantined for 4 days prior to the initiation of the study. LLC cells were maintained in a monolayer culture in DMEM medium supplemented with 10% heat inactivated fetal calf serum, 100 U/ml penicillin and 100 μg/ml streptomycin, and L-glutamine (2 mM) at 37° C. in an atmosphere of 5% CO2 in air. The tumor cells were routinely sub-cultured twice a week. The cells growing in an exponential phase were harvested and counted for tumor inoculation. Each mouse was inoculated subcutaneously at the right flank with the LLC tumor cells (3×10^5) in 0.1 ml of PBS for tumor development. When athymic nude mice were used, as for the BxPC3 model, then the strain of mice is slightly different. Furthermore, the use of Matrigel supports tumor development, meaning that cells are suspended in 100 μl of a mixture of medium/Matrigel (1:1) and are then subcutaneously implanted in the right flank region. Animals were monitored for tumor growth daily after cell implantation. When tumor volumes reached approximately 100-125 mm^3, mice were randomized into groups of 8 mice each using only mice having tumor volumes closest to the mean value. Tumor volumes were measured using the formula V=L×W×H×π/6, where L and W represent the longer and shorter diameters of the tumor and H represents the height of the tumor. Treatment began following randomization. PFK-158 was administered IP at a dose of 60 mg/kg on days 1, 3, 5, 7, 9, 11, and 13.
Similar protocols were used for the other studies using different models; differences included the use of Balbc/nude mice; administering larger number of cancer cells; and use of Matrigel.

Series [2] is described as follows: Repeat-dose toxicology study in SD rats. Type of series: in vivo. The method, then: Toxicology studies were performed in SD rats comparing PFK-158 and PFK-015 using a repeat dosing schedule. The studies were performed at dose levels ranging from 5 to 30 mg/kg and animals were monitored for weight loss, behavior, clinical signs, and clinical chemistries. At the end of the study, gross pathology and histopathology were performed.

Another series addresses PFKFB3 (Homo sapiens, UniProt Q16875). The series can be described thus: Enzymatic activity of PFKFB3 in cells (F2,6BP levels, Van Schaftingen method). Type of series: cell-based. Further details: endogenous in cells; host or cells: Jurkat cells. The procedure:
Inhibition of PFKFB3 can also be measured in cells by measuring fructose-2,6-biphosphate levels according to the Van Schaftingen method (Eur. J. of Biochem, 129: 191 (1982)). This method enables measurement of the inhibition in a cellular environment, a model more relevant than the pure recombinant protein. Briefly, Jurkat cells were plated at 1×10^5 cells/mL and incubated with different concentrations of PFK-158 for 3 hours. Samples were collected and cells were lysed. Extracts were characterized as described in previous reports and normalized to protein concentration.

Each structure is given as a SMILES string. Like-named read-outs stand apart in the source and are kept apart here. Bounds are passed on as bounds.

Chain of PFKFB3 (Q16875 whole entry): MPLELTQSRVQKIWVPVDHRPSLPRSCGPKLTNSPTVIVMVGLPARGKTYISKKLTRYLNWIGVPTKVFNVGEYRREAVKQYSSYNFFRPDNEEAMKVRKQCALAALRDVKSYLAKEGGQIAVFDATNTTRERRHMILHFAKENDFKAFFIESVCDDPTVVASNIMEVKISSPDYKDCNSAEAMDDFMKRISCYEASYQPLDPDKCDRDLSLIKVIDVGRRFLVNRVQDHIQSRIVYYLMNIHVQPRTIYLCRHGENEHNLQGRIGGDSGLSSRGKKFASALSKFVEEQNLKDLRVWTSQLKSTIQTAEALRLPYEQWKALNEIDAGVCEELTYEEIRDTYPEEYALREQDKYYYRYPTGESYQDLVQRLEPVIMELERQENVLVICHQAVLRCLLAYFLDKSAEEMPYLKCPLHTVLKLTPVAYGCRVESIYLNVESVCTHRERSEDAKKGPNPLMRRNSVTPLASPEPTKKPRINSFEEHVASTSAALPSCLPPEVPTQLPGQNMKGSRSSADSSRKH

Broadly, the IC50 is the concentration needed to halve the response being measured. Turning to `O=C(/C=C/c1ccc2ccc(C(F)(F)F)cc2n1)c1ccncc1` [PFK-158, (E)-1-(pyridyn-4-yl)-3-(7-(trifluoromethyl)quinolin-2-yl)-prop-2-en-1-one], the IC50 with SK-BR-3 was determined as 1600 nM; in the series with SW620, 2670 nM; with A498 it was 3510 nM; with A549 it was 8650 nM; with BT474, 1950 nM; in the series with HCT116 it was 3400 nM. Also, the IC50 was determined as 1180 nM in the series with PC-3; 3350 nM in the series with MiaPaCa-2; 4130 nM with HT29; 2620 nM with SKOV-3; 1600 ± 800 nM at PFKFB3 (FIG. 3, Jurkat cells, 3 hours, read-out: IC50, PFKFB3 in cells by fructose-2,6-biphosphate levels); 1600 ± 800 nM on PFKFB3 (Table 1, F2,6BP levels, Jurkat cells, read-out: IC50, Enzymatic activity of PFKFB3 in cells). The IC50 on PFKFB3 (Table 6, Jurkat cells, read-out: IC50 Cellular PFKFB3 (F2,6BP)) was 1620 ± 400 nM; on PFKFB3 (Table 8, read-out: IC50, Enzymatic activity of PFKFB3 in cells), 1600 ± 800 nM. Also, in [1] (lung, pancreatic and colon cancer mouse models), the tumor growth inhibition is 50% to 70. Besides, the body weight loss entry in series [1] (mouse, in vivo) is recorded as “without noticeable body weight loss or death”. Besides, in [1] (tumor models, FIGS. 6-8), the “effect of combination with other chemotherapeutic agents” value is listed as “additive or synergistic effect”. In [2] (rat, in vivo, repeat dosing schedule), this compound gave an MTD of over 30 mg/kg. In addition, the “Adverse observations in toxicology study” value in [2] (repeat dosing, PFK-158 5 to 30 mg/kg, PFK-015 12 and 25 mg/kg) is given as “no adverse observations”.
